Experiment [1] deals with Cavia porcellus. In words: Compound was tested for delayed hypersensitivity in guinea pig after administration in a water in oil emulsion; compound is pyrogenic at 1 mg/kg. The class given is functional, organism-based. The arrangement: dose 1 mg/kg.
The subject of experiment [2] is Mus musculus. In words: Compound was tested for antibody titer in mice after injection with antigen in saline; compound is pyrogenic at 1 mg/kg. More on the design: dose 1 mg/kg. The class given is functional, organism-based.
Experiment [3] deals with Limulus. In words: Compound was evaluated by Limulus amoebocyte lysate test; positive at 100 ug/mL. The class given is functional.
For experiment [4], the system named is Mus musculus. The experiment can be described thus: Compound was tested for protective activity in mice infected with Klebsiella pneumoniae; non pyrogenic at 1 mg/kg. Format: functional, organism-based. The arrangement: dose 1 mg/kg.
Experiment [5] is filed under the species Oryctolagus cuniculus. In words: Compound was tested for pyrogenicity in the rabbit; Delayed hypersensitivity. The class given is functional, organism-based.
The subject of experiment [6] is Mus musculus. In words: Compound was tested for [3H]- -thymidine uptake in mouse spleen cell cultures; compound is pyrogenic at 1 mg/kg. More on the design: dose 1 mg/kg. Format: functional, organism-based.
For experiment [7], the system named is Mus musculus. The experiment can be described thus: Compound was tested for protective activity in mice infected with Klebsiella pneumoniae; compound is pyrogenic at 1 mg/kg. Format: functional, organism-based. The arrangement: dose 1 mg/kg.
Experiment [8] deals with Mus musculus. In words: Compound was tested for [3H]thymidine uptake in mouse spleen cell cultures; compound is pyrogenic at 1 mg/kg. Format: functional, organism-based. More on the design: dose 1 mg/kg.
Experiment [9] deals with Limulus. The experiment can be described thus: Compound was evaluated by Limulus amoebocyte lysate test; Positive at 100 ug/mL. The class given is functional, organism-based.
Experiment [10] deals with Limulus. The experiment can be described thus: Compound was evaluated by Limulus amoebocyte lysate test; negative at 100 ug/mL. The class given is functional, organism-based.
Experiment [11] concerns Cavia porcellus. In words: Compound was tested for delayed hypersensitivity in guinea pig after administration in a water in oil emulsion; compound is non pyrogenic at 1 mg/kg. More on the design: dose 1 mg/kg. The class given is functional, organism-based.
The test system of experiment [12] is Oryctolagus cuniculus. The experiment can be described thus: Compound was tested for pyrogenicity in the rabbit; non pyrogenic at 1 mg/kg. The arrangement: dose 1 mg/kg. Format: functional, organism-based.
Experiment [13] has as its system Cavia porcellus. The experiment can be described thus: Compound was tested for delayed hypersensitivity in guinea pig after administration in a water in oil emulsion; non pyrogenic at 1 mg/kg. The class given is functional, organism-based. More on the design: dose 1 mg/kg.
For experiment [14], the system named is Mus musculus. The experiment can be described thus: Compound was tested for antibody titer in mice after injection with antigen in saline;compound is pyrogenic at 1 mg/kg. The class given is functional, organism-based. The arrangement: dose 1 mg/kg.
Experiment [15] deals with Limulus. The experiment can be described thus: Compound was evaluated by Limulus amoebocyte lysate test; positive at 10 ug/mL. The class given is functional, organism-based.
For experiment [16], the species on record is Oryctolagus cuniculus. In words: Compound was tested for pyrogenicity in the rabbit; non pyrogenic at […]. Format: functional, organism-based.
Experiment [17] concerns Mus musculus. In words: Compound was tested for protective activity in mice infected with Klebsiella pneumoniae; compound is non pyrogenic at 1 mg/kg. Format: functional, organism-based. More on the design: dose 1 mg/kg.
The species named for experiment [18] is Oryctolagus cuniculus. In words: Compound was tested for pyrogenicity in the rabbit; pyrogenic at 100 ug/mL. Format: functional, organism-based.

`COC(=O)C(CCC(N)=O)NC(=O)C(C)NC(=O)C(C)OC1[C@H](O)C(CO)O[C@@H](O)[C@H]1NC(C)=O` (stereo partly specified): the Adjuvant effect entry in [1] and in [2] was “pyrogenic at 1 mg/kg” each time. In addition, the LAL test entry in [3] is “positive at 100 ug/mL”. In addition, in [4], the Anti-infectious effect result was “Not toxic”. For the same compound, in experiment [5], the Pyrogenic effect entry is “Not toxic”. Also, the Mitogenic effect result in experiment [6] is “pyrogenic at 1 mg/kg”.

For `COC(=O)CCC(NC(=O)C(C)NC(=O)C(C)OC1[C@H](O)C(CO)O[C@@H](O)[C@H]1NC(C)=O)C(=O)OC` (stereo partly specified), in experiment [7], the Anti-infectious effect result is “pyrogenic at 1 mg/kg”. Also, the Adjuvant effect result in experiment [1] and in experiment [2] was “pyrogenic at 1 mg/kg” throughout. Further, in experiment [8], the Mitogenic effect entry is listed as “pyrogenic at 1 mg/kg”. Also, the LAL test entry in experiment [9] was “Positive at 100 ug/mL”. Besides, the Pyrogenic effect result in experiment [5] was “Not toxic”.

For `CC(=O)N[C@H]1C(OC(C)C(=O)NC(C)C(=O)NC(CCC(=O)O)C(=O)O)[C@H](O)C(CO)O[C@H]1O` (stereo partly specified), in experiment [7], the Anti-infectious effect entry is on record as “pyrogenic at 1 mg/kg”. Also, the Adjuvant effect entry was “pyrogenic at 1 mg/kg” in experiment [2] and “Not toxic” in [11]. In addition, in experiment [10], the LAL test entry is “negative at 100 ug/mL”. Further, the Mitogenic effect result in experiment [6] was “pyrogenic at 1 mg/kg”. For the same compound, the Pyrogenic effect entry in [12] is “Not toxic”.

`CC(=O)N[C@H]1C(OC(C)C(=O)NC(C)C(=O)NC(CCC(N)=O)C(=O)O)[C@H](O)C(CO)O[C@H]1O` (stereo partly specified): the Anti-infectious effect entry in experiment [7] was “pyrogenic at 1 mg/kg”. The Mitogenic effect result in experiment [6] is given as “pyrogenic at 1 mg/kg”. Also, the figures for the Adjuvant effect entry in experiment [13] and in experiment [14] were “Not toxic” and “pyrogenic at 1 mg/kg”, respectively. Further, in experiment [15], the LAL test entry is “positive at 10 ug/mL”. In addition, the Pyrogenic effect entry in experiment [16] was “Not toxic”.

In the case of `CC(=O)N[C@H]1[C@@H](O[C@@H](C)C(=O)N[C@@H](C)C(=O)N[C@H](CCC(=O)N[C@@H](CCCCN)C(=O)N[C@H](C)C(=O)O)C(N)=O)[C@H](O)[C@H](CO)O[C@H]1O`, the Anti-infectious effect result in experiment [17] was “Not toxic”. The Adjuvant effect entry in experiment [1] and in [2] was “pyrogenic at 1 mg/kg” in each case. In experiment [10], the LAL test entry was “Not toxic”. For the same compound, in [18], the Pyrogenic effect entry is reported as “pyrogenic at 100 ug/mL”. For the same compound, the Mitogenic effect result in experiment [6] was “pyrogenic at 1 mg/kg”.

With `CC(=O)N[C@H]1C(O)O[C@H](CO)[C@@H](O)[C@@H]1O[C@H](C)C(=O)N[C@@H](C)C(=O)N[C@H](CCC(=O)O)C(N)=O` (stereo partly specified), the Anti-infectious effect result in [7] is on record as “pyrogenic at 1 mg/kg”. In addition, the Adjuvant effect entry in [1] and in experiment [2] was “pyrogenic at 1 mg/kg” in each case. In addition, the LAL test result in [3] is “positive at 100 ug/mL”. Also, in experiment [18], the Pyrogenic effect entry was “pyrogenic at 100 ug/mL”. In addition, the Mitogenic effect entry in experiment [6] is “pyrogenic at 1 mg/kg”.

The record behind these values is ChEMBL document CHEMBL1121481, “Synthetic immunostimulants derived from the bacterial cell wall” (J Med Chem, 1980).
